Data on five compounds can be found in patent US20040116440A1, “Bombesin receptor antagonists” (priority 2000, published 2004).

In experiment [1] the target is T1, cloned human GRP-preferring receptor (BB2) (Homo sapiens, UniProt P30550).
T1 construct: expressed in transfected cells; membranes prepared from the cells
Briefly: BB2 binding assay, [125I][Tyr4]bombesin competition on membranes of CHO-K1 cells. The following applies: 90 minutes. From the text:
(§1) The compounds of the invention have been evaluated in receptor binding assays which measure their affinity in a cloned human NMB-preferring receptor (BB1) assay and in a cloned human GRP-preferring receptor (BB2) assay. […] Accordingly they may be useful for the diagnosis, prevention, or treatment of male sexual dysfunction in humans and animals, female sexual dysfunction in humans and animals, anxiety and panic disorders, social phobia, depression, psychoses, sleeping disorders, memory impairment, pulmonary hypertension, lung repair and lung development disorders, cancer including prostate cancer and pancreatic cancer, hepatic porphyria, gastrointestinal secretory disturbances, gastrointestinal disorders including colitis, Crohn's disease and inflammatory bowel disease, emesis, anorexia, pain, seasonal affective disorders, feeding disorders, or pruritus.
(§2) In the following experiments, measurement of BB1 and BB2 binding was as follows. CHO-K1 cells stably expressing cloned human NMB (for (BB1 assay) and GRP receptors (for BB2 assay) were routinely grown in Ham's F12 culture medium supplemented with 10% foetal calf serum and 2 mM glutamine. For binding experiments, cells were harvested by trypsinization, and stored frozen at −70° C. in Ham's F12 culture medium containing 5% DMSO until required. On the day of use, cells were thawed rapidly, diluted with an excess of culture medium, and centrifuged for 5 minutes at 2000 g. Cells were resuspended in 50 mM Tris-HCl assay buffer (pH 7.4 at 21° C., containing 0.02% BSA, […] bacitracin, […] chymostatin, […] leupeptin, and 2 mM phosphoramidon), counted, and polytronned (setting 5, 10 sec) before centrifuging for 10 minutes at 28,000 g. The final pellet was resuspended in assay buffer to a final cell concentration of 1.5×10^5/mL. For binding assays, 200 μL aliquots of membranes were incubated with [^125I][Tyr^4]bombesin (<0.1 nM) in the presence and absence of test compounds (final assay volume 250 μL) for 60 minutes and 90 minutes for NMB and GRP receptors, respectively. Nonspecific binding was defined by 1 μM bombesin. Assays were terminated by rapid filtration under vacuum onto Whatman GF/C filters presoaked in 0.2% PEI for >2 hours, and washed 50 mM Tris-HCl (pH 6.9 at 21° C.; 6×1 mL). Radioactivity bound was determined using a gamma counter.
All competition data was analysed using nonlinear regression utilising iterative curve-plolting procedures in Prism® (GraphPad Software Inc., San Diego, USA). IC50 values were corrected to Ki values using the Cheng-Prusoff equation (Cheng Y., Prusoff W. H., Biochem. Pharmacol. 22: 3099-3108, 1973).

Experiment [2] deals with T2, cloned human NMB-preferring receptor (BB1) (Homo sapiens, UniProt P28336).
T2 construct: expressed in transfected cells; membranes prepared from the cells
T2 sequence (P28336 whole entry): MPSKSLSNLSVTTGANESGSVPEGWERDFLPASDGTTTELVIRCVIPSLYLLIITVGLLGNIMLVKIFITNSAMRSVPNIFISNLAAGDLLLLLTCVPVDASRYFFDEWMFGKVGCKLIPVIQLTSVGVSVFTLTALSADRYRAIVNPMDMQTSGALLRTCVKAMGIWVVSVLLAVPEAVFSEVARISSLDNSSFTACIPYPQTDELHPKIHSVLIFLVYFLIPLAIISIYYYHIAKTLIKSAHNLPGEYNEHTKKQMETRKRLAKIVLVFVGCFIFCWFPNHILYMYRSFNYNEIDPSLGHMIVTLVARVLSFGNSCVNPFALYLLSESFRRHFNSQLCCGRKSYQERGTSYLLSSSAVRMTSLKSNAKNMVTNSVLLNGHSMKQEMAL
The experiment can be described thus: BB1 binding assay, [125I][Tyr4]bombesin competition on membranes of CHO-K1 cells. The following applies: 60 minutes.
Text: as §1
as §2, with “For binding assays, 200 μL aliquots of membranes were incubated with [^125I][Tyr^4]bombesin (<0.1 nM) in the presence and absence of test compounds (final assay volume 250 μL) for 60 minutes and 90 minutes for NMB and GRP receptors, respectively. Nonspecific binding was defined by 1 μM bombesin. Assays were terminated by rapid filtration under vacuum onto Whatman GF/C filters presoaked in 0.2% PEI for >2 hours, and washed 50 mM Tris-HCl (pH 6.9 at 21° C.; 6×1 mL).” left out
All competition data was analysed using nonlinear regression utilising iterative curve-plolting procedures in Prism® (GraphPad Software Inc., San Diego, USA). […]

[3] abbreviates: Table 2, N-acyl derivatives of Intermediate VIa.
The mark [4] stands for this setting: Table 6, N-terminal sulfonamide derivatives.

T1 sequence (P30550 whole entry): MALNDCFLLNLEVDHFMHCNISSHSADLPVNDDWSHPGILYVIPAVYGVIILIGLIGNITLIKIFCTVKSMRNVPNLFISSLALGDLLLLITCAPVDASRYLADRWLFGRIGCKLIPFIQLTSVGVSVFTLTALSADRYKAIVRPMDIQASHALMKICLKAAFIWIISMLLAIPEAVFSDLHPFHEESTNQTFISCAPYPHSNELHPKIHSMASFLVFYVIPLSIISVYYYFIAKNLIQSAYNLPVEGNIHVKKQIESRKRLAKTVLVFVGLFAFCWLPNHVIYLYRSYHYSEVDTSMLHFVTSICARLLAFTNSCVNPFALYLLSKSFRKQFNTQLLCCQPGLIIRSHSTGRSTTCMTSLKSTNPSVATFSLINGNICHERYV

The term IC50 denotes the midpoint of a concentration-inhibition curve. High values mean lower potency, low ones higher potency. For the compound `Cc1ccccc1CC(=O)N[C@@](C)(Cc1c[nH]c2ccccc12)C(=O)NCC1(c2ccccn2)CCCCC1` [Example 20, (S)-3-(1H-Indol-3-yl)-2-methyl-N-(1-pyridin-2-yl-cyclohexylmethyl)-2-(2-o-tolyl-ethanoylamino)-propionamide], the half-maximal inhibitory concentration (IC50) in experiment [1] (setting [3]) was above 10000 nM.

Compound `C[C@@](Cc1c[nH]c2ccccc12)(NS(=O)(=O)c1cc(Cl)sc1Cl)C(=O)NCC1(c2ccccn2)CCCCC1` [Example 126, (S)-2-(2,5-Dichloro-thiophene-3-sulfonylamino)-3-(1H-indol-3-yl)-2-methyl-N-(1-pyridin-2-yl-cyclohexylmethyl)-propionamide] displayed an IC50 in experiment [1] (setting [4]) above 10000 nM. Take `C[C@@](Cc1c[nH]c2ccccc12)(NS(=O)(=O)c1cc(C(F)(F)F)ccc1Cl)C(=O)NCC1(c2ccccn2)CCCCC1` [Example 135, (S)-2-(2-Chloro-5-trifluoromethyl-benzenesulfonylamino)-3-(1H-indol-3-yl)-2-methyl-N-(1-pyridin-2-yl-cyclohexylmethyl)-propionamide]: the IC50 is 627 nM in experiment [2] (setting [4]) and above 10000 nM in experiment [1] (setting [4]).

For `C[C@@](Cc1c[nH]c2ccccc12)(NS(=O)(=O)c1ccc(C(F)(F)F)cc1[N+](=O)[O-])C(=O)NCC1(c2ccccn2)CCCCC1` [Example 136, (S)-3-(1H-Indol-3-yl)-2-methyl-2-(2-nitro-4-trifluoromethyl-benzenesulfonylamino)-N-(1-pyridin-2-yl-cyclohexylmethyl)-propionamide], the half-maximal inhibitory concentration (IC50) in experiment [2] (setting [4]) is 758 nM; in experiment [1] (setting [4]), above 10000 nM. As for “Dimethylamino-N {(S)-2-(1H-indol-3-yl)-1-methyl-1-[(1-pyridin-2-yl-cyclohexyl-methyl)-carbamoyl]-ethyl}-benzamide [Example 11]”, the IC50 in experiment [2] (setting [3]) amounted to 2520 nM.
